Source: patent US6919090B2, “Active substance combinations with insecticidal and acaricidal properties” (priority 2000, dated 2005)

What was measured:
Format in all cases: in vivo
[1] = tested on: caterpillars of the army worm (Spodoptera frugiperda); experiment: Spodoptera frugiperda Test, cabbage leaf dip
Text: (§1) The expected action for a given combination of two active compounds can be calculated as follows, using the formula of S. R. Colby, Weeds 15 (1967), 20-22: • If • X is the kill rate, expressed as % of the untreated control, when employing active compound A at an application rate of m g/ha or in a concentration of m ppm, • Y is the kill rate, expressed as % of the untreated control, when employing active compound B at an application rate of n g/ha or in a concentration of n ppm and • E is the kill rate, expressed as % of the untreated control, when employing active compounds A and B at application rates of m and n g/ha or in a concentration of m and n ppm, • then [formula]
(§2) If the actual insecticidal kill rate exceeds the calculated value, the action of the combination is superadditive, i.e. a synergistic effect is present. In this case, the actually observed kill rate must exceed the value calculated using the above formula for the expected kill rate (E).
Spodoptera frugiperda Test
To produce a suitable preparation of active compound, 1 part by weight of active compound is mixed with the stated amounts of solvent and emulsifier, and the concentrate is diluted with emulsifier-containing water to the desired concentration. Cabbage leaves (Brassica oleracea) are treated by being dipped into the preparation of active compound of the desired concentration and are populated with caterpillars of the army worm (Spodoptera frugiperda) while the leaves are still moist.
(§3) After the desired period of time, the kill in % is determined. 100% means that all caterpillars have been killed; 0% means that none of the caterpillars have been killed. The kill rates determined are calculated using Colby's formula.

[2] = tested on: normally sensitive caterpillars of the diamondback moth (Plutella xylostella); experiment: Plutella Test (normally sensitive), cabbage leaf dip
Text: as §1, §2
Plutella Test (Normally Sensitive)
To produce a suitable preparation of active compound, 1 part by weight of active compound is mixed with the stated amounts of solvent and emulsifier, and the concentrate is diluted with emulsifier-containing water to the desired concentration. […]
After the desired period of time, the kill in % is determined. […] The kill rates determined are calculated using Colby's formula.

[3] = tested on: resistant caterpillars of the diamondback moth (Plutella xylostella); experiment: Plutella Test (resistant), cabbage leaf dip
Text: as §1, §2
Plutella Test (Resistant)
To produce a suitable preparation of active compound, 1 part by weight of active compound is mixed with the stated amounts of solvent and emulsifier, and the concentrate is diluted with emulsifier-containing water to the desired concentration.
Cabbage leaves (Brassica oleracea) are treated by being dipped into the preparation of active compound of the desired concentration and are populated with resistant caterpillars of the diamondback moth (Plutella xylostella) while the leaves are still moist.
as §3

Question: With Emamectin-benzoate as the compound, how does the “Kill rate in % after 7 d” value ([1]; 0.16 ppm) read?
Answer: 55%

Question: What does the source list for `COC(=O)N(C(=O)N1COC2(C(=O)OC)Cc3cc(Cl)ccc3C2=N1)c1ccc(OC(F)(F)F)cc1` (stereo not drawn) [Indoxacarb, indoxacarb]?
Answer: Kill rate in % after 3 d ([2]; 0.16 ppm): 15%; Kill rate in % after 7 d ([3]; 0.16 ppm): 90%

Question: With `N#Cc1nn(-c2c(Cl)cc(C(F)(F)F)cc2Cl)c(N)c1[S+]([O-])C(F)(F)F` (stereo not drawn) [Fipronil, fipronil] as the compound, how does the “Kill rate in % after 7 d” value ([3]; 0.032 ppm) read?
Answer: 40%

Question: And the “Kill rate in % after 7 d” value ([1]; 0.8 ppm)?
Answer: 20%

Question: How did the “Kill rate in % after 3 d” value ([2]; 100 ppm) turn out when `Cc1cc(C)c(C2=C(OC(=O)CC(C)(C)C)C3(CCCC3)OC2=O)c(C)c1` [Ex. I-b-1] was run?
Answer: 40%

Question: What about the “Kill rate in % after 7 d” value ([3]; 100 ppm) of the same compound?
Answer: 35%

Question: What about the “Kill rate in % after 7 d” value ([3]; 500 ppm) of the same compound?
Answer: 40%

Question: And the “Kill rate in % after 7 d” value ([1]; 100 ppm)?
Answer: 0%
